Measurements from patent US11458123B2 (Arvinas, Inc., priority 2016, dated 2022).

tested on: tau protein; assay: Tau protein in vitro degradation assay (Western blot, Tau-13 antibody); format: cell-based, human; settings: SK-N-SH cells; 72 hours of incubation; tested at 1000 nM, 300 nM and 100 nM
Procedure: Tau Protein In Vitro Degradation Assay
To determine effect of PROTACs on tau protein degradation SK-N-SH cells were seeded in a 24-well tissue culture-treated plate for at least 18-hours prior to compound addition. Tau PROTACs were evaluated for tau degradation by lysing the cells in lysis buffer with protease inhibitors following a 72-hour incubation with tau PROTACs at 1000 nM, 300 nM and 100 nM for Table 1 and 300 nM, 100 nM, 33 nM and 11 nM for Table 2. Cell lysates were run on standard SDS-PAGE gels, and tau levels were detected by Western blotting using Tau-13 antibody from Abcam (Cambridge, UK) that binds to all forms of human tau.

SMILES	Activity* (highest amount of degradation observed at any dosage, as tau protein remaining)
Cc1ncsc1-c1ccc(CNC(=O)[C@@H]2C[C@@H](O)CN2C(=O)[C@@H](NC(=O)COCCCCOc2ccc3nc(-c4ccc(N(C)C)cc4)ccc3c2)C(C)(C)C)cc1 [Compound 33, (2S,4R)-1-((S)-2-(2-(4-(2-(4-(dimethylamino)phenyl)quinolin-6-yloxy)butoxy)acetamido)-3,3-dimethylbutanoyl)-4-hydroxy-N-(4-(4-methylthiazol-5-yl)benzyl)pyrrolidine-2-carboxamide]	C (>80% tau protein remaining after 72 hours of incubation with the test compound)
Cc1ncsc1-c1ccc([C@H](C)NC(=O)[C@@H]2C[C@@H](O)CN2C(=O)[C@@H](NC(=O)COCCCCOc2ccc3nc(-c4ccc(N(C)C)cc4)ccc3c2)C(C)(C)C)cc1 [Compound 34, (2S,4R)-1-((S)-2-(2-(4-(2-(4-(dimethylamino)phenyl)quinolin-6-yloxy)butoxy)acetamido)-3,3-dimethylbutanoyl)-4-hydroxy-N—((S)-1-(4-(4-methylthiazol-5-yl)phenyl)ethyl)pyrrolidine-2-carboxamide]	C (>80% tau protein remaining after 72 hours of incubation with the test compound)
Cc1ncsc1-c1ccc(CNC(=O)[C@@H]2C[C@@H](O)CN2C(=O)[C@@H](NC(=O)COCCCOCCCOc2ccc3nc(-c4ccc(N(C)C)cc4)ccc3c2)C(C)(C)C)cc1 [Compound 35, (2S,4R)-1-((S)-2-(2-(3-(3-(2-(4-(dimethylamino)phenyl)quinolin-6-yloxy)propoxy)propoxy)acetamido)-3,3-dimethylbutanoyl)-4-hydroxy-N-(4-(4-methylthiazol-5-yl)benzyl)pyrrolidine-2-carboxamide]	C (>80% tau protein remaining after 72 hours of incubation with the test compound)
Cc1ncsc1-c1ccc([C@H](C)NC(=O)[C@@H]2C[C@@H](O)CN2C(=O)[C@@H](NC(=O)COCCCOCCCOc2ccc3nc(-c4ccc(N(C)C)cc4)ccc3c2)C(C)(C)C)cc1 [Compound 36, (2S,4R)-1-((S)-2-(2-(3-(3-(2-(4-(dimethylamino)phenyl)quinolin-6-yloxy)propoxy)propoxy)acetamido)-3,3-dimethylbutanoyl)-4-hydroxy-N—((S)-1-(4-(4-methylthiazol-5-yl)phenyl)ethyl)pyrrolidine-2-carboxamide]	C (>80% tau protein remaining after 72 hours of incubation with the test compound)
Cc1ncsc1-c1ccc(CNC(=O)[C@@H]2C[C@@H](O)CN2C(=O)[C@@H](NC(=O)COCCCCCOc2ccc3nc(-c4ccc(N(C)C)cc4)ccc3c2)C(C)(C)C)cc1 [Compound 37, (2S,4R)-1-((S)-2-(2-(5-(2-(4-(dimethylamino)phenyl)quinolin-6-yloxy)pentyloxy)acetamido)-3,3-dimethylbutanoyl)-4-hydroxy-N-(4-(4-methylthiazol-5-yl)benzyl)pyrrolidine-2-carboxamide]	C (>80% tau protein remaining after 72 hours of incubation with the test compound)
Cc1ncsc1-c1ccc([C@H](C)NC(=O)[C@@H]2C[C@@H](O)CN2C(=O)[C@@H](NC(=O)COCCCCCOc2ccc3nc(-c4ccc(N(C)C)cc4)ccc3c2)C(C)(C)C)cc1 [Compound 38, (2S,4R)-1-((S)-2-(2-(5-(2-(4-(dimethylamino)phenyl)quinolin-6-yloxy)pentyloxy)acetamido)-3,3-dimethylbutanoyl)-4-hydroxy-N—((S)-1-(4-(4-methylthiazol-5-yl)phenyl)ethyl)pyrrolidine-2-carboxamide]	C (>80% tau protein remaining after 72 hours of incubation with the test compound)
